From the NIST ThermoML archive (doi:10.1016/j.jct.2015.12.027)

What was measured:
[1] = xn = mol fraction of the nth substance listed; conditions: 81.5 kPa, Liquid, Vibrating tube method
[2] = refractive index (Na D-line) (dimensionless); xn = mol fraction of the nth substance listed; conditions: 81.5 kPa, Liquid, Standard Abbe refractometry

O=[N+]([O-])c1ccccc1 [nitrobenzene] + ClCCCl
Conditions	mass density, 293.15 K [kg/m3]	mass density, 303.15 K [kg/m3]	mass density, 313.15 K [kg/m3]	mass density, 323.15 K [kg/m3]	mass density, 333.15 K [kg/m3]	refractive index, 293.15 K	refractive index, 303.15 K	refractive index, 313.15 K	refractive index, 323.15 K	refractive index, 333.15 K
[1], x2 = 0	1203.05	1193.15	1183.21	1173.27	1163.32	–	–	–	–	–
[1], x2 = 0.1008	1206.99	1196.83	1186.61	1176.36	1166.07	–	–	–	–	–
[1], x2 = 0.1993	1211.04	1200.58	1190.03	1179.45	1168.82	–	–	–	–	–
[1], x2 = 0.3	1215.35	1204.56	1193.66	1182.68	1171.66	–	–	–	–	–
[1], x2 = 0.3997	1219.84	1208.67	1197.36	1185.98	1174.52	–	–	–	–	–
[1], x2 = 0.4991	1224.55	1212.96	1201.23	1189.39	1177.48	–	–	–	–	–
[1], x2 = 0.6004	1229.62	1217.53	1205.32	1193	1180.62	–	–	–	–	–
[1], x2 = 0.7006	1234.94	1222.31	1209.57	1196.72	1183.82	–	–	–	–	–
[1], x2 = 0.801	1240.51	1227.39	1214.06	1200.58	1187.03	–	–	–	–	–
[1], x2 = 0.8997	1246.65	1232.66	1218.68	1204.5	1190.22	–	–	–	–	–
[2], x2 = 0	–	–	–	–	–	1.55241	1.54763	1.54288	1.53795	1.53289
[2], x2 = 0.1008	–	–	–	–	–	1.54317	1.53879	1.53437	1.52975	1.52496
[2], x2 = 0.1993	–	–	–	–	–	1.5343	1.53004	1.52579	1.5214	1.5169
[2], x2 = 0.3	–	–	–	–	–	1.5252	1.52093	1.51672	1.51243	1.5081
[2], x2 = 0.3997	–	–	–	–	–	1.51592	1.51157	1.5073	1.50299	1.49867
[2], x2 = 0.4991	–	–	–	–	–	1.5061	1.50165	1.49727	1.49286	1.48847
[2], x2 = 0.6004	–	–	–	–	–	1.49525	1.49071	1.48623	1.48171	1.4772
[2], x2 = 0.7006	–	–	–	–	–	1.48353	1.47893	1.47436	1.46977	1.46518
[2], x2 = 0.801	–	–	–	–	–	1.47088	1.46619	1.46154	1.45687	1.45224
[2], x2 = 0.8997	–	–	–	–	–	1.45787	1.453	1.44817	1.44337	1.43861
